According to patent US20220260557A1, “METHODS FOR DEPLETION AND ENRICHMENT” (priority 2018, published 2022):
“And” between values parts separate entries of the source, which are not always exact repeats. Identical values can stand only once.

How the values were obtained:
[1] = clinical; conditions: human, in vivo, serum biotin level, LC-MS/MS
[2] = Serum biotin levels after 20 mg biotin ingestion, free biotin ELISA; conditions: per volunteer
Experimental: Baseline serum samples were obtained from 5 apparently healthy adult volunteers (4 male, 1 female) by antecubital venous blood draw in BD brand Vacutainer™ 10 mL red top tubes. […] Blood was allowed to clot for 1 hour at RT and centrifuged at 2,000 rpm for 15 min in a Beckman Allegra 6R tabletop centrifuge. For each time point, serum samples from each volunteer was pooled, mixed for 15 min at RT, aliquoted into 1.2 mL aliquots in 2 mL cryo-vials, and frozen at −80° C.
Samples above the kit's measuring range were diluted with the kit's sample dilution buffer.

With `O=C(O)CCCC[C@@H]1SC[C@@H]2NC(=O)N[C@@H]21` [Biotin] as the molecule, how does the concentration at 6 h ([1]; 20 mg, all 5 volunteers) read?
The concentration at 6 h was 17 to 35 ng/mL.

And the concentration at 8 h ([1]; 20 mg, 8 hours, 4 out of 5 volunteers >15 ng/mL)?
The concentration at 8 h was 16 to 28 ng/mL.

What about the concentration at 6 h ([1]; 200 mg, 200 mg dose (so in the source)) of the same molecule?
The concentration at 6 h was 95 to 347 ng/mL.

What about the “Biotin Concentration 1-hr” value ([2]; 1 hr after 20 mg biotin ingestion) of the same molecule?
Its value is 440 ng/mL.

And the “Biotin Concentration 3-hr” value ([2]; 3 hr after 20 mg biotin ingestion)?
Its value is 221 ng/mL and 289 ng/mL and 184 ng/mL and 113 ng/mL and 183 ng/mL.

And the “Biotin Concentration 6-hr” value ([2]; 6 hr after 20 mg biotin ingestion)?
Its value is 60 ng/mL and 65 ng/mL and 76 ng/mL.

What about the “Biotin Concentration 8-hr” value ([2]; 8 hr after 20 mg biotin ingestion) of the same molecule?
Its value is 48 ng/mL and 64 ng/mL and 65 ng/mL.

What about the “Biotin Concentration 24-hr” value ([2]; 24 hr after 20 mg biotin ingestion) of the same molecule?
The value was 29 ng/mL and 26 ng/mL and 32 ng/mL and 24 ng/mL.

And the “Biotin Concentration 0-hr” value ([2]; baseline before 20 mg biotin ingestion)?
Its value is 1.1 ng/mL and 0.1 ng/mL and 0.3 ng/mL and 0.4 ng/mL (2×).

What about the concentration at 1 h ([2]; both, human, in vivo, 20 mg, Biotin Concentration 1-hr, 1 hr after 20 mg biotin ingestion) of the same molecule?
The concentration at 1 h was 531 ng/mL.

And the concentration at 6 h ([2]; both, human, in vivo, 20 mg, Biotin Concentration 6-hr, 6 hr after 20 mg biotin ingestion)?
The concentration at 6 h was 107 ng/mL.

What about the concentration at 8 h ([2]; both, human, in vivo, 20 mg, Biotin Concentration 8-hr, 8 hr after 20 mg biotin ingestion) of the same molecule?
The concentration at 8 h was 60 to 107 ng/mL.

What about the concentration at 24 h ([2]; both, human, in vivo, 20 mg, Biotin Concentration 24-hr, 24 hr after 20 mg biotin ingestion) of the same molecule?
The concentration at 24 h was 24 to 32 ng/mL.
